Biological target: T1, hCRTH2 (Homo sapiens, UniProt Q9Y5Y4)
T1 construct: expressed in transfected cells; host or cells: HEK (human embryonic kidney) cells expressing hCRTH2; membrane preparation
T1 sequence (Q9Y5Y4 1-395): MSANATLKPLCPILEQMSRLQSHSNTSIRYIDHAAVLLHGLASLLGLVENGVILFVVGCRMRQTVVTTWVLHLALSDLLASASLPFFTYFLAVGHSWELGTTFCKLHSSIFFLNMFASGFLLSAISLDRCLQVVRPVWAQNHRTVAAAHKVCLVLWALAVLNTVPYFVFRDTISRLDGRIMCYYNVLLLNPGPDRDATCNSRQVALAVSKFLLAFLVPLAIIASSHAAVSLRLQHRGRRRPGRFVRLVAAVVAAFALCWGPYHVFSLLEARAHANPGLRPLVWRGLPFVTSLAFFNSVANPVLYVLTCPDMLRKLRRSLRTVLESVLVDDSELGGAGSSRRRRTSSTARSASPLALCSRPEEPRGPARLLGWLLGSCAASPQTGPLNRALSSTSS
Assay: Radioligand binding assay ([3H]PGD2 competition, HEK-hCRTH2 membranes)
Settings: [3H]PGD2 binding, rated A-E (Table A)
Outline: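 Competition binding with 3.0 nM [3H]PGD2 and 8-20 μg HEK-hCRTH2 membrane protein in 50 mM Tris-HCl pH 7.4, 1 mM EDTA, 2 mM MnCl2, 1% Me2SO, 60 min at room temperature. Nonspecific binding defined with 10 μM PGD2; bound radioactivity counted after filtration.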

| Ki [nM] | SMILES |
| --- | --- |
| 0.1 to 2 | O=C(O)CCCCc1nc2cc(C(=O)NCc3cccc(C(F)(F)F)c3)ccc2nc1-c1ccc(Cl)cc1 [16AB, 3-(4-chlorophenyl)-7-[[[[3-(trifluoromethyl)phenyl]methyl]amino]carbonyl]-2-quinoxalinepentanoic acid] |
| 0.1 to 2 | O=C(O)CCCCc1nc2cc(C(=O)NCc3cccc(OC(F)(F)F)c3)ccc2nc1-c1ccc(Cl)cc1 [16AC, 3-(4-chlorophenyl)-7-[[[[3-(trifluoromethoxy)phenyl]methyl]amino]carbonyl]-2-quinoxalinepentanoic acid] |
| 0.1 to 2 | C[C@@H](NC(=O)c1ccc2nc(-c3ccc(Cl)cc3)c(CCCCC(=O)O)nc2c1)c1ccc(Cl)cc1 [16AD, 3-(4-chlorophenyl)-7-[[[(R)-(4-chlorophenyl)ethyl]amino]carbonyl]-2-quinoxalinepentanoic acid] |
| 0.1 to 2 | C[C@H](NC(=O)c1ccc2nc(-c3ccc(Cl)cc3)c(CCCCC(=O)O)nc2c1)c1ccc(Cl)cc1 [16AE, 3-(4-chlorophenyl)-7-[[[1(S)-(4-chlorophenyl)ethyl]amino]carbonyl]-2-quinoxalinepentanoic acid] |
| 0.1 to 2 | O=C(O)CCCCc1nc2cc(C(=O)N3CC(c4ccccc4)C3)ccc2nc1-c1ccc(Cl)cc1 [16AF, 3-(4-chlorophenyl)-7-[(3-phenyl-1-azetidinyl)carbonyl]-2-quinoxalinepentanoic acid] |
| 0.1 to 2 | O=C(O)CCCCc1nc2cc(C(=O)N3CCN(c4ccccc4)CC3)ccc2nc1-c1ccc(Cl)cc1 [16AG, 3-(4-chlorophenyl)-7-[(4-phenyl-1-piperazinyl)carbonyl]-2-quinoxalinepentanoic acid] |
| 2.1 to 20 | O=C(O)CCCCc1nc2cc(C(=O)N[C@H](c3ccccc3)C(F)(F)F)ccc2nc1-c1ccc(Cl)cc1 [16AH, 3-(4-chlorophenyl)-7-[[(2,2,2-trifluoro-1(R)-phenylethyl)amino]carbonyl]-2-quinoxalinepentanoic acid] |
| 0.1 to 2 | O=C(O)CCCCc1nc2cc(C(=O)N3CC=C(c4ccccc4)CC3)ccc2nc1-c1ccc(Cl)cc1 [16AJ, 3-(4-chlorophenyl)-7-[(3,6-dihydro-4-phenyl-1(2H)-pyridinyl)carbonyl]-2-quinoxalinepentanoic acid] |
| 0.1 to 2 | N#CC1(c2ccccc2)CCN(C(=O)c2ccc3nc(-c4ccc(Cl)cc4)c(CCCCC(=O)O)nc3c2)CC1 [16AK, 3-(4-chlorophenyl)-7-[(4-cyano-4-phenyl-1-piperidinyl)carbonyl]-2-quinoxalinepentanoic acid] |
| 0.1 to 2 | C[C@@H](NC(=O)c1ccc2nc(-c3ccc(Cl)cc3)c(CCCCC(=O)O)nc2c1)c1ccccc1 [16AL, 3-(4-chlorophenyl)-7-[[(1(R)-phenylethyl)amino]carbonyl]-2-quinoxalinepentanoic acid] |
| 0.1 to 2 | C[C@H](NC(=O)c1ccc2nc(-c3ccc(Cl)cc3)c(CCCCC(=O)O)nc2c1)c1ccccc1 [16AM, 3-(4-chlorophenyl)-7-[[(1-(S)-phenylethyl)amino]carbonyl]-2-quinoxalinepentanoic acid] |
| 0.1 to 2 | O=C(O)CCCCc1nc2cc(C(=O)N[C@H]3CCCc4ccccc43)ccc2nc1-c1ccc(Cl)cc1 [16AN, 3-(4-chlorophenyl)-7-[[(1,2,3,4-tetrahydro-1(S)-naphthalenyl)amino]carbonyl]-2-quinoxalinepentanoic acid] |

The next lines start with the molecule.

| SMILES | Ki [nM] |
| --- | --- |
| CN(C(=O)c1ccc2nc(-c3ccccc3)c(CCCCC(=O)O)nc2c1)C1CCOC1 (stereo not shown) [15Bo, 5-{7-[methyl (tetrahydrofuran-3-yl)carbamoyl]-3-phenylquinoxalin-2-yl} pentanoic acid] | 20.1 to 200 |
| O=C(O)CCCCc1nc2cc(C(=O)NCc3ccc(C(F)(F)F)cc3)ccc2nc1-c1ccccc1 [15C, 5-(3-phenyl-7-{[4-(trifluoromethyl)benzyl]carbamoyl}quinoxalin-2-yl)pentanoic acid] | 0.1 to 2 |
| C[C@@H](NC(=O)c1ccc2nc(-c3ccccc3)c(CCCCC(=O)O)nc2c1)c1ccc(F)cc1 [15D, 5-(7-{[(1R)-1-(4-fluorophenyl)ethyl]carbamoyl}-3-phenyl-quinoxalin-2-yl)pentanoic acid] | 0.1 to 2 |
| C[C@H](NC(=O)c1ccc2nc(-c3ccccc3)c(CCCCC(=O)O)nc2c1)c1ccc(F)cc1 [15E, 5-(7-{[(1S)-1-(4-fluorophenyl)ethyl]carbamoyl}-3-phenylquinoxalin-2-yl)pentanoic acid] | 0.1 to 2 |
| O=C(O)CCCCc1nc2cc(C(=O)N[C@@H](c3ccccc3)C(F)(F)F)ccc2nc1-c1ccccc1 [15F, 5-(3-phenyl-7-{[(1S)-2,2,2-trifluoro-1-phenylethyl]carbamoyl}quinoxalin-2-yl) pentanoic acid] | 2.1 to 20 |
| O=C(O)CCCCc1nc2cc(C(=O)N[C@H](c3ccccc3)C(F)(F)F)ccc2nc1-c1ccccc1 [15G, 5-(3-phenyl-7-{[(1R)-2,2,2-trifluoro-1-phenylethyl]carbamoyl}quinoxalin-2-yl) pentanoic acid] | 2.1 to 20 |
| O=C(O)CCCCc1nc2cc(C(=O)N3CCC4(CC3)CNC4)ccc2nc1-c1ccccc1 [15H, 5-[7-(2,7-diazaspiro-[3.5]non-7-ylcarbonyl)-3-phenylquinoxalin-2-yl]pentanoic acid] | 20.1 to 200 |
| O=C(O)CCCCc1nc2cc(C(=O)N3CCNC(c4ccccc4)C3)ccc2nc1-c1ccccc1 (stereo not shown) [15J, 5-{3-phenyl-7-[(3-phenylpiperazin-1-yl)carbonyl]quinoxalin-2-yl}pentanoic acid] | 2.1 to 20 |
| O=C(O)CCCCc1nc2cc(C(=O)N3CCNC(Cc4ccccc4)C3)ccc2nc1-c1ccccc1 (stereo not shown) [15K, 5-{7-[(3-benzylpiperazin-1-yl)carbonyl]-3-phenyl-quinoxalin-2-yl}pentanoic acid] | 2.1 to 20 |
| CCN1CCN(C(=O)c2ccc3nc(-c4ccccc4)c(CCCCC(=O)O)nc3c2)CC1 [15L, 5-{7-[(4-ethylpiperazin-1-yl)carbonyl]-3-phenylquinoxalin-2-yl}pentanoic acid] | 20.1 to 200 |
| COCCN1CCN(C(=O)c2ccc3nc(-c4ccccc4)c(CCCCC(=O)O)nc3c2)CC1 [15M, 5-(7-{[4-(2-methoxy-ethyl)piperazin-1-yl]-carbonyl}-3-phenyl-quinoxalin-2-yl) pentanoic acid] | 20.1 to 200 |
| COc1ccc(C2CCN(C(=O)c3ccc4nc(-c5ccccc5)c(CCCCC(=O)O)nc4c3)C2)cc1 (stereo not shown) [15N, 5-(7-{[3-(4-methoxy-phenyl)pyrrolidin-1-yl]-carbonyl}-3-phenyl-quinoxalin-2-yl) pentanoic acid] | 2.1 to 20 |
| O=C(O)CCCCc1nc2cc(C(=O)N3CCC(c4cccc(Cl)c4)C3)ccc2nc1-c1ccccc1 (stereo not shown) [15P, 5-(7-{[3-(3-chloro-phenyl)pyrrolidin-1-yl]-carbonyl}-3-phenyl-quinoxalin-2-yl) pentanoic acid] | 0.1 to 2 |
| O=C(O)CCCCc1nc2cc(C(=O)NC(c3ccc(F)cc3)C(F)(F)F)ccc2nc1-c1ccccc1 (stereo not shown) [15Q, 5-(3-phenyl-7-{[2,2,2-trifluoro-1-(4-fluoro-phenyl)ethyl]carbamoyl}-quinoxalin-2-yl)pentanoic acid] | 0.1 to 2 |
| O=C(O)CCCCc1nc2cc(C(=O)N3CCC(Cc4ccccc4)C3)ccc2nc1-c1ccccc1 (stereo not shown) [15R, 5-{7-[(3-benzylpyrrolidin-1-yl)carbonyl]-3-phenyl-quinoxalin-2-yl}pentanoic acid] | 0.1 to 2 |
| O=C(O)CCCCc1nc2cc(C(=O)N3CCC(c4ccc(F)cc4)C3)ccc2nc1-c1ccccc1 (stereo not shown) [15S, 5-(7-{[3-(4-fluorophenyl)-pyrrolidin-1-yl]carbonyl}-3-phenylquinoxalin-2-yl)-pentanoic acid] | 0.1 to 2 |
| O=C(O)CCCCc1nc2cc(C(=O)NCc3ccc(Cl)cc3)ccc2nc1-c1ccccc1 [15T, 5-{7-[(4-chlorobenzyl)-carbamoyl]-3-phenyl-quinoxalin-2-yl} pentanoic acid] | 0.1 to 2 |
| O=C(O)CCCCc1nc2cc(C(=O)NCc3cccc(Cl)c3)ccc2nc1-c1ccccc1 [15U, 5-{7-[(3-chlorobenzyl)carbamoyl]-3-phenylquinoxalin-2-yl}pentanoic acid] | 2.1 to 20 |
| O=C(O)CCCCc1nc2cc(C(=O)NCc3ccccc3Cl)ccc2nc1-c1ccccc1 [15V, 5-{7-[(2-chlorobenzyl)carbamoyl]-3-phenylquinoxalin-2-yl}pentanoic acid] | 0.1 to 2 |
| CC(C)(NC(=O)c1ccc2nc(-c3ccccc3)c(CCCCC(=O)O)nc2c1)c1ccccc1 [15X, 5-{7-[(1-methyl-1-phenylethyl)carbamoyl]-3-phenylquinoxalin-2-yl}pentanoic acid] | 0.1 to 2 |
| O=C(O)CCCCc1nc2cc(C(=O)N3CCCC(c4ccccc4)C3)ccc2nc1-c1ccccc1 (stereo not shown) [15Y, 5-{3-phenyl-7-[(3-phenylpiperidin-1-yl)carbonyl]quinoxalin-2-yl}pentanoic acid] | 0.1 to 2 |
| O=C(O)CCCCc1nc2cc(C(=O)NCc3ccccc3)ccc2nc1-c1ccccc1 [15Z, 5-[7-(benzylcarbamoyl)-3-phenylquinoxalin-2-yl]pentanoic acid] | 0.1 to 2 |
| O=C(O)CCCCc1nc2cc(C(=O)N3CC4(CCNCC4)C3)ccc2nc1-c1ccccc1 [15i, 5-[7-(2,7-diazaspiro-[3.5]non-2-ylcarbonyl)-3-phenylquinoxalin-2-yl]pentanoic acid] | 201 to 700 |
| O=C(O)CCCCc1nc2cc(C(=O)N3CCN(S(=O)(=O)c4ccccc4)CC3)ccc2nc1-c1ccccc1 [15o, 5-(3-phenyl-7-{[4-(phenylsulfonyl)piperazin-1-yl]carbonyl}quinoxalin-2-yl)pentanoic acid] | 2.1 to 20 |

Same assay, conditions: [3H]PGD2 binding, values in text

| Ki [nM] | SMILES |
| --- | --- |
| 152 | O=C(O)CCCCc1nc2cc(C(=O)N3CCC4(CC3)CNC4)ccc2nc1-c1ccccc1 [15H, 5-[7-(2,7-diazaspiro-[3.5]non-7-ylcarbonyl)-3-phenylquinoxalin-2-yl]pentanoic acid] |
| 283 | O=C(O)CCCCc1nc2cc(C(=O)N3CC4(CCNCC4)C3)ccc2nc1-c1ccccc1 [15i, 5-[7-(2,7-diazaspiro-[3.5]non-2-ylcarbonyl)-3-phenylquinoxalin-2-yl]pentanoic acid] |
| 16.7 | O=C(O)CCCCc1nc2cc(C(=O)N3CCN(S(=O)(=O)c4ccccc4)CC3)ccc2nc1-c1ccccc1 [15o, 5-(3-phenyl-7-{[4-(phenylsulfonyl)piperazin-1-yl]carbonyl}quinoxalin-2-yl)pentanoic acid] |
| 1.2 | O=C(O)CCCCc1nc2cc(C(=O)N3CCN(c4ccccc4)CC3)ccc2nc1-c1ccc(Cl)cc1 [16AG, 3-(4-chlorophenyl)-7-[(4-phenyl-1-piperazinyl)carbonyl]-2-quinoxalinepentanoic acid] |

Reference: US9469615B2, “Quinoxalines and AZA-quinoxalines as CRTH2 receptor modulators” (Merck Sharp & Dohme Corp., priority 2010, dated 2016)
